From patent publication US20240415852A1, “ORAL CODELIVERY OF NAVITOCLAX AND Bcl2 siRNA TREATING GASTIC CANCER” (Board of Regents, The University of Texas System, priority 2023, published 2024)

Tests used:
[1] = system: adenocarcinoma gastric cell line (AGS); assay: Cytotoxicity / cell viability, MTT assay; format: cell-based; conditions: human, 24 h
Experimental: The cytotoxicity of the nanoparticle formulation was studied using adenocarcinoma gastric cell line (AGS). Cells were grown in F-12K media supplemented with 20% fetal bovine serum at 5% CO2 humidified atmosphere. Cells were harvested using trypsin and 1×10^4 cells with 100 μL of serum free media per well was plated in 96-well plate and incubated for 24 and 48 h. At end of time interval, media was removed and known concentrations of samples 1×PBS, Navi, GADA/Navi, GADA/Navi/Bcl2 siRNA, GADA/Bcl2 siRNA, Navi/Bcl2 siRNA, (Navi 10, 20, 30, 40, and 50 μM and Bcl2 siRNA 20, 40, 60, 80, and 100 nM) and GADA were added to the cells. The plate was then incubated for 24 h and 48 h. Cell viability was measured using MTT cell proliferation assay kit according to manufacturer's instruction. The absorbance of MTT was measured by using a SYNERGY H1 microplate reader (BioTek) at a wavelength of 570 nm and subtracted the background absorbance recorded at 630 nm.
The mitochondrial enzymes are responsible for reducing the tetrazolium salt (MTT) into purple formazan crystals which is indicator of cell viability/cytotoxicity. The therapeutic effect of formulations was carried out by quantifying the cell viability using MTT assay. […]

platelet = conditions: reported in literature; cited from earlier work

SMILES: CC1(C)CCC(c2ccc(Cl)cc2)=C(CN2CCN(c3ccc(C(=O)NS(=O)(=O)c4ccc(N[C@H](CCN5CCOCC5)CSc5ccccc5)c(S(=O)(=O)C(F)(F)F)c4)cc3)CC2)C1 [Navitoclax]
- Cell viability [1]: 65.2±5.32%
- Platelet apoptosis, thrombocytopenia (platelet): induced platelet apoptosis, resulting in severe thrombocytopenia
